Here are results for three compounds from patent US10073099B2, “Methods and diagnostics for cancer detection and treatment monitoring” (University of New England, priority 2015, dated 2018).

Series [1] can be described thus: NOHA stability analysis by ELISA, in vitro medium spiked with NOHA. The class given is physicochemical. To be noted: medium spiked with 75 pg/ml NOHA. The procedure:
FIG. 6A presents an In Vitro medium NOHA stability analysis based on incubation duration and temperature condition for up to 6 weeks. n=4.
ELISA Method. 50 μl of NOHA standard sample concentration prepared in Locke's buffer (viz., 10 mM HEPES, 5.6 mM KCl, 154 mM NaCl, 5.6 mM glucose, 1.2 mM MgCl2, 2.3 mM CaCl2, pH 7.4) was mixed with 50 μl of primary NOHA antibody serum (at 1:200 dilution, Pierce Thermo Fisher) and incubated for 30 min at 4° C. The mixture was added to a 96 well plate pre-coated with […] (at 100 pg/ml concentration, in Locke's buffer). The plate was then incubated for 1 hour on a plate-rotator at 500 rpm, at 2-8° C. After incubation, the well content was aspirated, and the wells were washed three times with 200 μl ice-cold wash buffer (10 mM phosphate buffer pH 7.4, 150 mM NaCl, 0.05% Tween 20). 100 μl of enzyme conjugated secondary antibody (at 1:20,000 dilution in wash buffer) was added, and incubated for 1 hour on a plate rotator at 500 rpm, at 2-8° C. At the end of this incubation, the wells were washed again three times with 200 μl ice-cold wash buffer. […] The plates were then read at 450 nm, within 10 min after adding stop solution.
In vitro medium. To analyze NOHA stability via ELISA assay, medium was spiked with 75 pg/ml of NOHA and NOHA recovery was determined over 6 weeks at different temperatures (viz., −80° C., −20° C., 4° C., 25° C., 37° C. and 42° C.). […]
(In general: ELISA stands for enzyme-linked immunosorbent assay.)

Series [2] is described as follows: NOHA stability analysis over temperature in extracellular matrix medium of 3D spheroids, LC-MS. The class given is physicochemical. The procedure: Extracellular matrix medium from cancerous and non-cancerous 3D spheroid (viz., 300 μl/spheroid cell line), that was collected on day 7 after spheroid formation were divided in to six (6) equal volumes of 50 μl each. Each of the 50-μl fractions/spheroid cell lines were incubated at −80° C., −20° C., 4° C., 25° C., 37° C. and 42° C. for 1, 3, 5, 7, 10, 12, and 14 days. At the end of the incubation, NOHA level was monitored by LC-MS (Tables 4.1-4.6).
Those medium samples that were incubated at higher temperature of 42° C. suffered the most with NOHA stability, which lasted for only 3 days (Table 4.4).
Tables 4.1-4.6: NOHA measurements after incubation at various temperatures

A further series deals with ER− 3D spheroids. The series can be described thus: Medium NOHA level of 3D spheroids by ELISA in the presence of inhibitors. Format: cell-based. The procedure:
FIGS. 8A-8D present an analysis of medium NOHA level by ELISA in the presence or absence of inhibitors.
The following inhibitory tests were performed to determine their role (and/or regulatory effect) on extra-tumoral NOHA accumulation. While NOHA is generated by NOS2 during nitric oxide production, it can be utilized in a NOS2 independent mechanism for nitric oxide generation, that could involve myeloperoxidase (MPO) mediated oxidation or cytochrome P450 reductase mediated pathway.

Series [3] relates to MPO, Cytochrome P450 reductase. Kind of series: MPO and Cytochrome P450 reductase expression and activity after Arginase activity inhibition. The class given is cell-based. To be noted: after Arginase activity inhibition with 5 nM ABH. An excerpt: FIG. 12A and FIG. 12B present analysis of cytochrome P450 reductase; FIG. 12A presents a graph showing expression; FIG. 12B presents a graph showing activity. #, represents significance from ER+ and control groups; and ^, represents significance from ER−[CA] groups. n=4. P<0.01
FIG. 13A and FIG. 13B present analysis of MPO; FIG. 13A presents a graph showing expression; FIG. 13B presents a graph showing activity. #, represents significance from ER+ and control groups; and ^, represents significance from ER−[CA] groups. n=4. P<0.01.
The following inhibitory tests were performed to determine their role (and/or regulatory effect) on extra-tumoral NOHA accumulation. While NOHA is generated by NOS2 during nitric oxide production, it can be utilized in a NOS2 independent mechanism for nitric oxide generation, that could involve myeloperoxidase (MPO) mediated oxidation or cytochrome P450 reductase mediated pathway. Since NOHA is known to be a strong inhibitor of Arginase, and Arginase increase would favor tumor proliferation, the role of Arginase was also explored.

Molecules are shown by their SMILES. Where a name gives a salt, the structure may show the parent alone. Where only a bound is given, the exact number is not on record here.

Turning to `NC(=NCCC[C@H](N)C(=O)O)NO` [NOHA, N^w-hydroxy-L-Arginine], the “period over which NOHA was stable” value in series [1] (4° C. and below (4, −20, −80° C.)) is listed as 6 week. The “period over which NOHA maintained stability” value in series [1] (25° C., 37° C. and 42° C.) came out at 1 week. Further, the “degradation or reduction in NOHA level” value in series [2] (extracellular matrix medium at 4° C., −20° C., and −80° C., 14-day incubation) is “no significant degradation or reduction”. The “duration of stable NOHA monitoring level” value in series [2] (medium samples incubated at 25° C.) was 12 days. The “duration of NOHA stability” value in series [2] (medium samples incubated at 42° C.) worked out at 3 days. The “duration of stable NOHA monitoring” value in series [2] (medium samples stored at 37° C.) was “up to 7 days”.

`Clc1ccc(COC(Cn2ccnc2)c2ccc(Cl)cc2Cl)c(Cl)c1` (centres unmarked) [micronazole salt]: in the series with ER− 3D spheroids (ER−[AA], 10 μM inhibitor, over a 9 week period), the “increase in medium NOHA level” value is at least 0.79 fold. Further, in the series on ER− 3D spheroids (ER−[CA], 10 μM inhibitor, over a 9 week period), the “NOHA increase in the medium” value is at least 0.42 fold.

Take `N[C@@H](CCCCB(O)O)C(=O)O` [ABH, 2(s)-amino-6-boronohexanoic acid]: the “change in medium NOHA level” value in the series with ER− 3D spheroids (5 nM ABH, versus absence of ABH) is recorded as “no significant disease specific or ethnic specific change”. Also, in series [3], the “increase in Cytochrome P450 reductase expression and activity” value was at least 0.98; the “increase in MPO expression and activity” value was at least 1.2 fold.
